Species: Rattus norvegicus
Experiment: DrugMatrix - Regimen: Daily Repeat
Type: toxicity, organism-based, Sprague-Dawley
Design: regimen Daily Repeat, gender Male, age 6-8 weeks
Conditions: in vivo, po, route oral GAVAGE, vehicle 100 % WATER; for ABSOLUTE BASOPHIL / ABSOLUTE EOSINOPHIL / ABSOLUTE LYMPHOCYTE / ABSOLUTE MONOCYTE / ABSOLUTE SEGMENTED NEUTROPHIL / BASOPHIL / EOSINOPHIL / ERYTHROCYTE COUNT / HEMATOCRIT / HEMOGLOBIN / LEUKOCYTE COUNT / LYMPHOCYTE / MEAN CORPUSCULAR HEMOGLOBIN / MEAN CORPUSCULAR HEMOGLOBIN CONCENTRATION / MEAN CORPUSCULAR VOLUME / MONOCYTE / NEUTROPHIL / NUCLEATED RED BLOOD CELLS / PLATELET COUNT: tissue Blood; for ALANINE AMINOTRANSFERASE / ALBUMIN / ALKALINE PHOSPHATASE / ASPARTATE AMINOTRANSFERASE / BLOOD UREA NITROGEN / CARBON DIOXIDE / CHLORIDE / CHOLESTEROL / CREATINE PHOSPHOKINASE / CREATININE / GLUCOSE / LACTATE DEHYDROGENASE / LIPASE / PHOSPHORUS / POTASSIUM / SODIUM / TOTAL BILIRUBIN / TOTAL PROTEIN / URIC ACID: tissue Plasma
[1] = 2 mg/kg, 120 h, dose level Low, time 5 day
[2] = 2000 mg/kg, 72 h, dose level High, time 3 day
[3] = 2000 mg/kg, 120 h, dose level High, time 5 day

CC(C)(C)c1ccc(C(=O)CCCN2CCC(OC(c3ccccc3)c3ccccc3)CC2)cc1 [EBASTINE]
ABSOLUTE BASOPHIL [1]: 0 CELLS/uL | ABSOLUTE EOSINOPHIL [1]: 268.33 CELLS/uL | ABSOLUTE LYMPHOCYTE [1]: 11875.67 CELLS/uL | ABSOLUTE MONOCYTE [1]: 285.33 CELLS/uL | ABSOLUTE SEGMENTED NEUTROPHIL [1]: 1837.33 CELLS/uL | BASOPHIL [1]: 0% | EOSINOPHIL [1]: 1.67% | ERYTHROCYTE COUNT [1]: 5.47 x10E6/uL | HEMATOCRIT [1]: 34.03% | HEMOGLOBIN [1]: 13.83 G/DL | LEUKOCYTE COUNT [1]: 14.27 x10E3/uL | LYMPHOCYTE [1]: 83.33% | MEAN CORPUSCULAR HEMOGLOBIN [1]: 25.3 pg | MEAN CORPUSCULAR HEMOGLOBIN CONCENTRATION [1]: 40.67 G/DL | MEAN CORPUSCULAR VOLUME [1]: 62.27 fL | MONOCYTE [1]: 2% | NEUTROPHIL [1]: 13% | NUCLEATED RED BLOOD CELLS [1]: 0 /100WBC | PLATELET COUNT [1]: 1267.33 x10E3/uL | ALANINE AMINOTRANSFERASE [1]: 45.33 u/L | ALBUMIN [1]: 4.3 G/DL | ALKALINE PHOSPHATASE [1]: 377.33 u/L | ASPARTATE AMINOTRANSFERASE [1]: 74 u/L | BLOOD UREA NITROGEN [1]: 15.67 mg/dL | CARBON DIOXIDE [1]: 27.33 mmol/L | CHLORIDE [1]: 101 MEQ/L | CHOLESTEROL [1]: 75 mg/dL | CREATINE PHOSPHOKINASE [1]: 212.67 u/L | CREATININE [1]: 0.24 mg/dL | GLUCOSE [1]: 160.33 mg/dL | LACTATE DEHYDROGENASE [1]: 207.67 u/L | LIPASE [1]: 10 u/L | PHOSPHORUS [1]: 12.17 mg/dL | POTASSIUM [1]: 6.8 MEQ/L | SODIUM [1]: 140.47 MEQ/L | TOTAL BILIRUBIN [1]: 0.2 mg/dL | TOTAL PROTEIN [1]: 5.9 G/DL | URIC ACID [1]: 1.87 mg/dL | ABSOLUTE BASOPHIL [2]: 0 CELLS/uL | ABSOLUTE EOSINOPHIL [2]: 34.67 CELLS/uL | ABSOLUTE LYMPHOCYTE [2]: 11326.67 CELLS/uL | ABSOLUTE MONOCYTE [2]: 253 CELLS/uL | ABSOLUTE SEGMENTED NEUTROPHIL [2]: 2019 CELLS/uL | BASOPHIL [2]: 0% | EOSINOPHIL [2]: 0.33% | ERYTHROCYTE COUNT [2]: 6 x10E6/uL | HEMATOCRIT [2]: 36.1% | HEMOGLOBIN [2]: 14.77 G/DL | LEUKOCYTE COUNT [2]: 13.63 x10E3/uL | LYMPHOCYTE [2]: 83% | MEAN CORPUSCULAR HEMOGLOBIN [2]: 24.63 pg | MEAN CORPUSCULAR HEMOGLOBIN CONCENTRATION [2]: 40.9 G/DL | MEAN CORPUSCULAR VOLUME [2]: 60.27 fL | MONOCYTE [2]: 1.67% | NEUTROPHIL [2]: 15% | NUCLEATED RED BLOOD CELLS [2]: 0.33 /100WBC | PLATELET COUNT [2]: 1204 x10E3/uL | ALANINE AMINOTRANSFERASE [2]: 96.33 u/L | ALBUMIN [2]: 3.67 G/DL | ALKALINE PHOSPHATASE [2]: 316 u/L | ASPARTATE AMINOTRANSFERASE [2]: 119.67 u/L | BLOOD UREA NITROGEN [2]: 13.67 mg/dL | CARBON DIOXIDE [2]: 23.67 mmol/L | CHLORIDE [2]: 103.67 MEQ/L | CHOLESTEROL [2]: 57.33 mg/dL | CREATINE PHOSPHOKINASE [2]: 1102 u/L | CREATININE [2]: 0.21 mg/dL | GLUCOSE [2]: 195 mg/dL | LACTATE DEHYDROGENASE [2]: 227 u/L | LIPASE [2]: 8.67 u/L | PHOSPHORUS [2]: 11.03 mg/dL | POTASSIUM [2]: 4.81 MEQ/L | SODIUM [2]: 144.03 MEQ/L | TOTAL BILIRUBIN [2]: 0.1 mg/dL | TOTAL PROTEIN [2]: 5.2 G/DL | URIC ACID [2]: 1.47 mg/dL | ABSOLUTE BASOPHIL [3]: 0 CELLS/uL | ABSOLUTE EOSINOPHIL [3]: 0 CELLS/uL | ABSOLUTE LYMPHOCYTE [3]: 11532 CELLS/uL | ABSOLUTE MONOCYTE [3]: 384.67 CELLS/uL | ABSOLUTE SEGMENTED NEUTROPHIL [3]: 2350 CELLS/uL | BASOPHIL [3]: 0% | EOSINOPHIL [3]: 0% | ERYTHROCYTE COUNT [3]: 6.72 x10E6/uL | HEMATOCRIT [3]: 41.1% | HEMOGLOBIN [3]: 16.37 G/DL | LEUKOCYTE COUNT [3]: 14.27 x10E3/uL | LYMPHOCYTE [3]: 79.67% | MEAN CORPUSCULAR HEMOGLOBIN [3]: 24.4 pg | MEAN CORPUSCULAR HEMOGLOBIN CONCENTRATION [3]: 39.83 G/DL | MEAN CORPUSCULAR VOLUME [3]: 61.3 fL | MONOCYTE [3]: 3% | NEUTROPHIL [3]: 17.33% | NUCLEATED RED BLOOD CELLS [3]: 0 /100WBC | PLATELET COUNT [3]: 1272.67 x10E3/uL | ALANINE AMINOTRANSFERASE [3]: 120.67 u/L | ALBUMIN [3]: 3.9 G/DL | ALKALINE PHOSPHATASE [3]: 248 u/L | ASPARTATE AMINOTRANSFERASE [3]: 112.33 u/L | BLOOD UREA NITROGEN [3]: 16.33 mg/dL | CARBON DIOXIDE [3]: 28 mmol/L | CHLORIDE [3]: 105.67 MEQ/L | CHOLESTEROL [3]: 47 mg/dL | CREATINE PHOSPHOKINASE [3]: 523 u/L | CREATININE [3]: 0.22 mg/dL | GLUCOSE [3]: 151 mg/dL | LACTATE DEHYDROGENASE [3]: 262.67 u/L | LIPASE [3]: 8 u/L | PHOSPHORUS [3]: 10.77 mg/dL | POTASSIUM [3]: 4.79 MEQ/L | SODIUM [3]: 145.73 MEQ/L | TOTAL BILIRUBIN [3]: 0.13 mg/dL | TOTAL PROTEIN [3]: 5.13 G/DL | URIC ACID [3]: 1.23 mg/dL

Source: ChEMBL document CHEMBL3885881, “DrugMatrix”
